Patent publication JPH0776588A, “p−ボロノフェニルアラニン誘導体、その製造方法及び該誘導体の中間体化合物” (Nippon Aluminum Alkyls Ltd, priority 1993, dated 1995)
In brackets after ≈: the same amount, converted by molar mass.

What was measured:
B16 cells [B16細胞] = assay: Permeability (浸透性) into B16 cells, residual intracellular boron by ICP-MS; type: cell-based, human; details: 24 h
[1] = Cytotoxicity in cultured  (B16); type: cell-based, human; details: human, B16 cells
水溶性値 (water solubility) = type: physicochemical; details: for solubility: water, M (mol dm-3)
[2] = test system: TIG-1-20 human infant germ cells (T20) [TIG−1−20ヒト乳児胚芽細胞(T20)]; assay: Permeability (浸透性) into T20 cells, residual intracellular boron by ICP-MS; type: cell-based; details: boron compound 0.4 mmol, 37°C, 24 h
[3] = test system: B-16 human melanoma cells (B16) [B−16ヒト黒色癌細胞(B16)]; assay: Cytotoxicity in cultured  (B16); type: cell-based; details: 50% or more not killed even after 3 days at 1.77×10^-2 M
[4] = permeability B16 versus T20, 37°C

Row | solubility (水溶性値 (water solubility)) | water solubility value relative to BPA (水溶性値 (water solubility); ratio to BPA) | SMILES | selectivity for B16 over T20 (in words) (B16 cells [B16細胞]; [4]) | IC50 at 72 h ([1]; similar culture conditions (compound (1): after 3 days)) | permeability into T20 cells (in words, versus BPA) [2] | permeability into B16 cells (in words, versus BPA) (B16 cells [B16細胞]; boron compound 0.4 mmol, 37°C) | selectivity for B16 over T20 (B16 cells [B16細胞]; [4]) | IC50 (in words) [3] | cytotoxicity at 72 h, 17700 µM ([1]; compound at 1.77×10^-2 M, even after 3 days, read-out: cells killed)
1 | 7.66 mM (≈ 1.6 mg/mL) | – | NC(Cc1ccc(B(O)O)cc1)C(=O)O (racemic) [BPA, p−ボロノフェニルアラニン, reference compound] | 殆ど選択性がない | 8.55 mM | – | – | – | – | –
2 | 660 mM (≈ 186 mg/mL) | ~100 fold | NC(Cc1ccc(B(O)O)cc1)C(=O)NC(CO)CO (stereo not shown) [化合物(1)] | – | – | BPAよりはるかに低かった | BPAよりわずかに高い浸透性 | ≥ 5 fold | 高い | < 50%
